From patent US12121505B2, “Fap-activated therapeutic agents, and uses related thereto” (BACH BIOSCIENCES, LLC, priority 2014, dated 2024) come the findings set out here.

The format of data set [1] is physicochemical. As to the method:
• (i) LCMS of compound 3099DOX. • 0-3 min: 2% B; 3-20 min: 2-98% B; 20-25 min: 98% B. • Ran with 1.8 μm particle size column on the Old LCMS. • Calc.

Data set [2] concerns the target T1, FAP (Homo sapiens, UniProt Q12884).
T1 sequence (Q12884 1-760): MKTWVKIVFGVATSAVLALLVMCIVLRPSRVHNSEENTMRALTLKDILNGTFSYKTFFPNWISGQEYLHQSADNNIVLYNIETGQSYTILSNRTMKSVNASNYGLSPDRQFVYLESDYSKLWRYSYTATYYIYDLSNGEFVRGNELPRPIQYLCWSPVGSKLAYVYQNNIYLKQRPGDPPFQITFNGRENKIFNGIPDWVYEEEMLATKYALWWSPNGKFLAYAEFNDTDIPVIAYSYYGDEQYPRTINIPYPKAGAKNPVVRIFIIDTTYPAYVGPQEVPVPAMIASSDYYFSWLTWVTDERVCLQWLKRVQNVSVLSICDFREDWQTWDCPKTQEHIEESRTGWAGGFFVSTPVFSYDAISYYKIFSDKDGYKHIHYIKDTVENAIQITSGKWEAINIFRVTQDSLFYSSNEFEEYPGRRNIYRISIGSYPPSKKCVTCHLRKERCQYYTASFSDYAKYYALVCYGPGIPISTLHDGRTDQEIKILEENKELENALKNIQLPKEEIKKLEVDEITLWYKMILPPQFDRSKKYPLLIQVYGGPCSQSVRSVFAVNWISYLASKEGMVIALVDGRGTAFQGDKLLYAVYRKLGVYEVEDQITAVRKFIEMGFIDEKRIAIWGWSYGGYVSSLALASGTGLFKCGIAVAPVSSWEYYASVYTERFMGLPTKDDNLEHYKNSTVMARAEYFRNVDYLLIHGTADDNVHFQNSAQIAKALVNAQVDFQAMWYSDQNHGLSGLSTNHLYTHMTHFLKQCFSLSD
Put plainly: Specificity of activation: 24 h digestion with FAP. It is filed as biochemical. Conditions: 100 μM prodrug, 37° C. The procedure:
(§1) Total doxorubicin was measured for each assay.

Data set [3] addresses T1, FAP. It is filed as biochemical. The following applies: 1.34×10^−8 M FAP, 37° C. As to the method: Michaelis-Menten enzyme kinetics for FAP were measured using a SpectraMax M2e microplate reader (Molecular Devices, Sunnyvale, CA, USA). The assays were performed in FAP buffer (50 mM […], 140 mM NaCl, pH 7.5) at 25° C., and the fluorescence continuously monitored at excitation and emission wavelengths of 380 and 460 nm, respectively. Kinetic constants (kcat and Km) were determined using GP-AMC (Bachem, Torrance, CA, USA), Ac-(D)-AP-AFC (MP Biomedicals, Solon, OH, USA) and test article concentrations equivalent to 0.1-5 times their respective Km values, and with 5-10 nM enzyme. All assays were performed in triplicate, and the results were calculated with a nonlinear regression analysis, relying on a Michaelis-Menten curve fit using GraphPad software.
(§2) 3099DOX at various concentrations ranging from 8.5×10^−6 M to 6.9×10^−4 M was incubated with 1.34×10^−8 M FAP or PREP at 37° C., and released doxorubicin measured.

For data set [4] the following is noted: 100 μM prodrug, 37° C., 12 h.
For data set [5], the target named is T1, FAP. The experiment in a line: Rate of recombinant FAP activity on doxorubicin prodrugs. The following applies: 37° C.
Method: 3099DOX, z-GP-DOX, and 3996DOX were incubated in the presence of recombinant FAP at 37° C. for 24 hours. Released doxorubicin was measured at 1, 4, 12, and 24 hours.
Data set [6] has as its target T2, PREP (Homo sapiens, UniProt P48147).
T2 sequence (P48147 1-710): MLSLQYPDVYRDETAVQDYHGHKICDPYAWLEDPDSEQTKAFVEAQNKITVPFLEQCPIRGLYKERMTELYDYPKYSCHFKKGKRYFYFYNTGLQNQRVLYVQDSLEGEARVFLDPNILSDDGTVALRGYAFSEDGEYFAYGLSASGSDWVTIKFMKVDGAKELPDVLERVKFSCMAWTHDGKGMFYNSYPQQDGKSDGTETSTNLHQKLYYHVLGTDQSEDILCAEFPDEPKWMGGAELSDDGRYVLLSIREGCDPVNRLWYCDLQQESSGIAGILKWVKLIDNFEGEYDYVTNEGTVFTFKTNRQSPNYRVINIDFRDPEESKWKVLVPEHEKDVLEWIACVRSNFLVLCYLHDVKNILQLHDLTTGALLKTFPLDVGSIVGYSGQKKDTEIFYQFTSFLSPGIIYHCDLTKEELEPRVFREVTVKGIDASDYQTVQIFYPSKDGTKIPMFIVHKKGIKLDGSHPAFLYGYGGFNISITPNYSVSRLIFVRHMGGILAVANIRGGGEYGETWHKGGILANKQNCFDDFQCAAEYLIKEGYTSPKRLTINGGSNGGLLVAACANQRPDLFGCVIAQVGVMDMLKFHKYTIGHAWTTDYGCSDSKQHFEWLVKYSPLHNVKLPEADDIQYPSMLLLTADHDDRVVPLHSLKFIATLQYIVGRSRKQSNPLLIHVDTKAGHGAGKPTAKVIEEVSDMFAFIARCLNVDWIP
Put plainly: Specificity of activation: 24 h digestion with PREP. The data set is classed as biochemical. The following applies: 100 μM prodrug, 37° C. The procedure:
as §1

Data set [7] deals with T2, PREP. It is filed as biochemical. The following applies: 1.34×10^−8 M PREP, 37° C. As to the method: as §2
The target in data set [8] is dipeptidyl peptidase IV (DPP IV) (Homo sapiens, UniProt P27487). Put plainly: Specificity of activation: 24 h digestion with DPP IV. Conditions: 100 μM prodrug, 37° C. It is filed as biochemical. The procedure: as §1
Sequence of dipeptidyl peptidase IV (DPP IV) (P27487 whole entry, species assumed): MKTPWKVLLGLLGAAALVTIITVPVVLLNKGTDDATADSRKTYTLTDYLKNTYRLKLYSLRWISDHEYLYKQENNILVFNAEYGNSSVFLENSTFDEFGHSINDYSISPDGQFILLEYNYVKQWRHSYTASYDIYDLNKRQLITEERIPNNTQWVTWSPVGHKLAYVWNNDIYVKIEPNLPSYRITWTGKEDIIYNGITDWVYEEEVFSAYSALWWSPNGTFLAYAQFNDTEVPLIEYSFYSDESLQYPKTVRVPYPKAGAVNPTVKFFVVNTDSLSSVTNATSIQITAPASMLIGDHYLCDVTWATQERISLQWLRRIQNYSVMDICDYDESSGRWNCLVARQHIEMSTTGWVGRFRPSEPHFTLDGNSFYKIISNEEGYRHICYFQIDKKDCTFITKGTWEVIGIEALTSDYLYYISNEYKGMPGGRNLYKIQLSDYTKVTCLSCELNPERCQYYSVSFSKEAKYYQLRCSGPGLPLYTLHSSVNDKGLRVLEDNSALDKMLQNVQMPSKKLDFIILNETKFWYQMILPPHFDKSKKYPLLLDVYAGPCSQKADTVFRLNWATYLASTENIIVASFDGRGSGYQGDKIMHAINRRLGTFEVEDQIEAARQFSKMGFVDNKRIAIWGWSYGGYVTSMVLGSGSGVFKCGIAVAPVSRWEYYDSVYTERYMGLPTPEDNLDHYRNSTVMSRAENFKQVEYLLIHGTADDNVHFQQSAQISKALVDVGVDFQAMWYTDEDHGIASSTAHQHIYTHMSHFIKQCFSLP
Data set [9] has as its target T1, FAP. The experiment in a line: Selectivity of FAP over PREP (5057DOX digest, LCMS). The data set is classed as biochemical. Conditions: FIG. 14; 240 nM 5057DOX, 12, 24 or 48 nM enzyme, 37° C. The procedure:
Recombinant enzyme (FAP or PREP) was combined, at reaction concentration of 12 nM, 24 nM, or 48 nM, with 240 nM 5057DOX in FAP buffer (50 mM Tris-HCl, pH 7.4, 140 mM NaCl) and incubated at 37° C. Reactions were stopped at 0, 10, 20, or 30 minutes by addition of equal volume of 10 μM Val-boroPro (FAP inhibitor). Doxorubicin was measured by liquid chromatography/mass spectroscopy (LCMS).

In data set [10] the target is T1, FAP. The experiment in a line: FAP digest of 5057DOX (kinetics). The data set is classed as biochemical.
For the next data set, the target named is DPPII (Homo sapiens, UniProt Q9UHL4). The experiment in a line: In vitro DPPII inhibition assay. It is filed as biochemical.
For another data set, the target named is DPP8 (Homo sapiens, UniProt Q6V1X1). Put plainly: In vitro DPP8 inhibition assay. It is filed as biochemical.
Sequence of DPP8 (Q6V1X1 whole entry, species assumed): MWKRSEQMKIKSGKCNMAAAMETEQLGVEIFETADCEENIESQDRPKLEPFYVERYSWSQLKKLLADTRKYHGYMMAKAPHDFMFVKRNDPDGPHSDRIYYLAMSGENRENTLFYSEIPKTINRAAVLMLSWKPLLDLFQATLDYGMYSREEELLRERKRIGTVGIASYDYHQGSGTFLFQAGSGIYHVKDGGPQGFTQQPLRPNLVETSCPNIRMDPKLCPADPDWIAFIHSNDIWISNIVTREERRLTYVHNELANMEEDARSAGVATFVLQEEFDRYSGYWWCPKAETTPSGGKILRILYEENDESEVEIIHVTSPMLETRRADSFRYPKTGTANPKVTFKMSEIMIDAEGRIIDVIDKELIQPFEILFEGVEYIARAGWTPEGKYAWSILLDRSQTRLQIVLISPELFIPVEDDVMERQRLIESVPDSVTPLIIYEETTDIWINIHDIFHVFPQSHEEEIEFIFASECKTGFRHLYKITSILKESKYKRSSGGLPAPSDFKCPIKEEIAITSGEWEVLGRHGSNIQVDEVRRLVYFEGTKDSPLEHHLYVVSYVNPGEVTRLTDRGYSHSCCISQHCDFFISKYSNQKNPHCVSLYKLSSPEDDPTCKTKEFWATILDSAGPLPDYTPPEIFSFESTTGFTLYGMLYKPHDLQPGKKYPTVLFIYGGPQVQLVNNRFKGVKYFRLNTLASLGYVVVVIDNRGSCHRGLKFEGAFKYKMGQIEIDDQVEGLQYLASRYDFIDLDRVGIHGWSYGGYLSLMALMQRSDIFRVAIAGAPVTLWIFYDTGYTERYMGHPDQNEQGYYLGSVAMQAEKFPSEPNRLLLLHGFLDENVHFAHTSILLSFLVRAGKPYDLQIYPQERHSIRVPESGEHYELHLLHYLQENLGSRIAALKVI
The target of data set [11] is T2, PREP. The experiment in a line: In vitro PREP inhibition assay. The data set is classed as biochemical.
In data set [12] the target is T1, FAP. The experiment in a line: In vitro FAP inhibition assay. The data set is classed as biochemical.
The target in a further data set is DPP9 (Homo sapiens, UniProt Q86TI2). Put plainly: In vitro DPP9 inhibition assay. The data set is classed as biochemical.
Sequence of DPP9 (Q86TI2 whole entry, species assumed): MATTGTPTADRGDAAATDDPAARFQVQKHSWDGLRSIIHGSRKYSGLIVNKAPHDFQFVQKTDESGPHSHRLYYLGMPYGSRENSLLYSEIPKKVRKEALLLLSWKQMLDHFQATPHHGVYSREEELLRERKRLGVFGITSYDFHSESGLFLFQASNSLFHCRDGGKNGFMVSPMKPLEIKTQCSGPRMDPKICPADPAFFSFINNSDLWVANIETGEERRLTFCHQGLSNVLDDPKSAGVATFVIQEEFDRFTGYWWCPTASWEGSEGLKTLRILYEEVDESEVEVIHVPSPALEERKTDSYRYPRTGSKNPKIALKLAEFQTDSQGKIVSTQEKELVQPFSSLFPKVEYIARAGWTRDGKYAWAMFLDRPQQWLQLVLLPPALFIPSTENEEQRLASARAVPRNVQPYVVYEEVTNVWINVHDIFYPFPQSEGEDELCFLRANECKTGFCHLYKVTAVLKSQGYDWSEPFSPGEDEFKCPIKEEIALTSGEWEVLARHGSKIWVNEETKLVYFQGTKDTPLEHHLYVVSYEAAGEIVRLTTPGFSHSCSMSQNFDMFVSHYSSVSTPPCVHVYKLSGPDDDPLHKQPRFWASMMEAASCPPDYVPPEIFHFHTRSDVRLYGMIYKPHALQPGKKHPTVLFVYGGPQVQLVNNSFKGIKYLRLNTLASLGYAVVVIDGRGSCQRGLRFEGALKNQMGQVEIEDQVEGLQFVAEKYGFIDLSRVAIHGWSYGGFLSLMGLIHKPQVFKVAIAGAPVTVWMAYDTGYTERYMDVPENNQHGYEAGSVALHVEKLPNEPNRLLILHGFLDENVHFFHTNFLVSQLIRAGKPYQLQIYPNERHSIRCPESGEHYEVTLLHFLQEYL
In another data set the target is DPPIV (Homo sapiens, UniProt P27487). Put plainly: In vitro DPPIV inhibition assay. It is filed as biochemical.
Sequence of DPPIV (P27487 whole entry, species assumed): as the sequence (P27487 whole entry, species assumed) above

Like-named read-outs stand apart in the source and are kept apart here.

Turning to `COc1cccc2c1C(=O)c1c(O)c3c(c(O)c1C2=O)C[C@@](O)(C(=O)CO)C[C@@H]3O[C@H]1C[C@H](NC(=O)[C@@H]2CCCN2C(=O)[C@@H](C)NC(=O)c2ccncc2)[C@H](O)[C@H](C)O1` [Compound 3099DOX], the “Remaining Purity %” value in data set [1] (22° C./72% RH, 1 month) was 99.5%; in data set [1] (22° C./72% RH, 1 week), 99.3%; in data set [1] (22° C./72% RH, 2 month) it was 98.1%; in data set [1] (22° C./72% RH, 3 month), 97.5%; in data set [1] (22° C./72% RH, Day 0), 99.4%; in data set [1] (40° C./75% RH, 1 month), 98.8%. The “Remaining Purity %” value in [1] (40° C./75% RH, 1 week) amounted to 99.3%; in data set [1] (40° C./75% RH, 2 month) it was 96.3%; in [1] (40° C./75% RH, 3 month), 95.3%; in [1] (40° C./75% RH, Day 0) it was 99.4%. Further, the “doxorubicin released by FAP” value on FAP [2] is recorded as “released from 3099DOX by FAP”. Also, the Km (in general, the substrate concentration at which the rate is half of its maximum) at FAP [3] was determined as 11.2 µM. Further, on FAP [3], the “kcat(Vmax/[E])” value was found to be 0.44 s⁻¹. At FAP [3] (released doxorubicin), the Vmax (commonly the top rate of the reaction or transport when substrate is in excess) was found to be 5.877e-09 M/s. In addition, the “doxorubicin released in mouse muscle lysate” value in data set [4] was “released essentially no doxorubicin”. In addition, at FAP [5], the “time to reach maximum free doxorubicin” value is recorded as “approximately 8 h”. For the same compound, at PREP [6], the “doxorubicin released by PREP” value is listed as “neither PREP nor DPP IV”. Moreover, on PREP [7], the “activation with PREP” value was “essentially no activation with PREP”.
`COc1cccc2c1C(=O)c1c(O)c3c(c(O)c1C2=O)C[C@@](O)(C(=O)CO)C[C@@H]3O[C@H]1C[C@H](NC(=O)[C@@H]2CCCN2C(=O)CNC(=O)OCc2ccccc2)[C@H](O)[C@H](C)O1` [z-GP-DOX, reference compound]: the “doxorubicin released by FAP” value at FAP [2] is “A similar amount of doxorubicin was released from z-GP-DOX by FAP and PREP”. In data set [4], the “doxorubicin released in mouse muscle lysate” value is given as “released a large amount of doxorubicin”. Also, the “doxorubicin released by DPP IV” value in data set [8] was “essentially none by DPP IV”. At PREP [6], the “doxorubicin released by PREP” value was “A similar amount of doxorubicin was released from z-GP-DOX by FAP and PREP”.
`COc1cccc2c1C(=O)c1c(O)c3c(c(O)c1C2=O)C[C@@](O)(C(=O)CO)C[C@@H]3O[C@H]1C[C@H](NC(=O)[C@@H]2CC(F)(F)CN2C(=O)CNC(=O)c2ccnc3ccccc23)[C@H](O)[C@H](C)O1` [Compound 5057DOX]: the “activation by FAP as compared to PREP” value on FAP [9] was “selectively activated by FAP as compared to PREP”. Also, on FAP [10] (assay 6, [FAP] 4.00 × 10^−9M), the Km was found to be 11.1 µM, the Vmax came to 5.19e-09 M/s and the “kcat(Vmax/[E])” value is “Kcat(Vmax/[E]) 1.30 sec^−1”. In addition, on FAP [10] (assay 7, [FAP] 1 nM), the Kcat entry is on record as “Kcat 0.98 sec^−1” and the Km was 4.85 µM. For the same compound, the Vmax result at FAP [10] (assay 7, [FAP] 1 nM, Dox standards, Daunorubicin internal standard) is “Vmax 9.80 × 10^−9M/sec”.
In the case of `CC(C)[C@H](NC(=O)OCc1ccc(NC(=O)[C@@H]2CC(F)(F)CN2C(=O)CNC(=O)c2ccnc3ccccc23)cc1)C(=O)N1CCC[C@H]1B(O)O` [Compound 5181], the IC50 (as a rule, the concentration that inhibits the measured activity by half) is 24000 nM against DPPII; 7300 nM at DPP8; 15 nM against PREP [11]; 110 nM on FAP [12]; 2600 nM against DPP9; 860 nM against DPPIV.
